The subject of experiment [1] is primary cultures of corneal endothelial cells. The experiment is described as follows: Seahorse XFe96 mitochondrial respiration of primary cultures of corneal endothelial cells. The class given is cell-based, human. How it is done: (§1) Human corneas were obtained by Iowa Lions Eye Bank (ILEB) from nondiabetic donors 60-75 years old and stored in Optisol GS (Bausch+Lomb, Irvine, Calif.) at 4° C. following procurement in accordance with Eye Bank Association of America and ILEB policies and procedures. Endothelial cells were isolated and cultured in Seahorse XFe96 well plates until they reached confluency. Purity of cell cultures were confirmed with anti-zonula occludens 1 (ZO-1) labeling of cellular tight junctions. Once confluent, cells were treated with different concentrations of cyclodextrin-coenzyme Q10 complex in culture (1 μM, 10 μM, or 100 μM) uncomplexed coenzyme Q10 (100 μM), cyclodextrin alone, or diluent control. Mitochondrial respiration was assayed by measuring oxygen consumption using the Seahorse XFe96 Extracellular Flux Analyzer (Agilent Technologies, Santa Clara, Calif.) over 120 minutes (9-minute intervals). Wells were labeled with a nuclear counterstain (DAPI) and nuclei were counted in each well to normalize respirometry data.
Seahorse respiration assays were conducted with MitoQ with doses ranging from 0 to 10 μM. All experiments were performed on corneal endothelial cells in culture and analyzed using the XFe96 Extracellular Flux Analyzer.
as §1, with “MitoQ with doses ranging from 0 to” for “different concentrations of cyclodextrin-coenzyme Q10 complex in culture (1 μM,”, “μM.” for “μM, or 100 μM) uncomplexed coenzyme Q10 (100 μM), cyclodextrin alone, or diluent control.”

Experiment [2] has as its system immortalized human corneal endothelial cells. The experiment is described as follows: Seahorse XFe24 mitochondrial respiration of immortalized human corneal endothelial cells grown in hyperglycemic medium. To be noted: 25 days of growth in 5.5-13.0 mM glucose, n=18, P<0.0001. Format: cell-based. How it is done: FIG. 40. Mitochondrial respiration assay using Seahorse XFe24 extracellular flux analyzer of immortalized human corneal endothelial cells following 25 days of growth in 5.5-13.0 mM glucose and treated with 8.3 μM PQQ (n=18). Maximal respiration and spare respiratory capacity are lowered in HCECs (P<0.0001) due to hyperglycemic growing conditions.
FIG. 41. Mitochondrial respiration assay using Seahorse XFe24 extracellular flux analyzer of immortalized human corneal endothelial cells following 25 days of growth in 5.5-13.0 mM glucose and treated with 1.0 mM NAC (n=18). Maximal respiration and spare respiratory capacity are lowered in HCECs (P<0.0001) due to hyperglycemic growing conditions.

Experiment [3] concerns human donor corneal endothelial cells. The experiment is described as follows: Mitochondrial respiration assay (Seahorse XFe24 extracellular flux analyzer) of donor corneal endothelium after storage in supplemented Optisol GS. The class given is cell-based. Particulars: 1 mM ascorbate-2-phosphate. The method, then:
Human corneal tissue pairs were obtained by Iowa Lions Eye Bank (ILEB) from nondiabetic donors 60-75 years old and stored in Optisol GS (Bausch+Lomb, Irvine, Calif.) at 4° C. following procurement in accordance with Eye Bank Association of America and ILEB policies and procedures. For 5 days prior to testing, but within 9 days of procurement, one stored tissue from a corneal pair was treated with 10 μM CoQ10, while the mate tissue was treated with diluent only as a control. Descemet membrane and endothelial cell punches were collected and mounted onto the bottom of a Seahorse assay plate (cells facing upward). Mitochondrial respiration was assayed by measuring oxygen consumption using the Seahorse XFe24 Extracellular Flux Analyzer (Agilent Technologies, Santa Clara, Calif.) over 120 minutes (9-minute intervals). Punches were labeled with a nuclear counterstain (DAPI) and remaining tissues were mounted onto slides and labeled with 488A-Annexin V, Ethidium Homodimer III, and Hoechst 33342 (Apoptotic, Necrotic, and Healthy Cells Quantification Kit; Biotium, Fremont, Calif.) to assay cell health. Nuclei were counted in each punch to normalize respirometry data. Immunohistochemistry densitometry was measured using ImageJ software.
Human donor whole globe eye pairs were obtained by Iowa Lions Eye Bank (ILEB) and the anterior portion of the eyes were removed. For 14 days, one cornea was stored from a corneal pair treated with 1 mM ascorbate-2-phosphate, while the mate tissue was treated with diluent only as a control. Descemet membrane and endothelial cell punches were collected and mounted onto the bottom of a Seahorse assay plate (cells facing upward). Mitochondrial respiration was assayed by measuring oxygen consumption using the Seahorse XFe24 Extracellular Flux Analyzer (Agilent Technologies, Santa Clara, Calif.) over 120 minutes (9-minute intervals). Punches were labeled with a nuclear counterstain (DAPI) and nuclei were counted in each punch to normalize respirometry data. […]
Tissue preparation and extracellular flux assays for mitochondrial respiration were performed as described in Greiner et al. (2015). In brief, after pre-stripping the EDM, 3 mm diameter EDM punches were mounted in wells of a XF24 microplate (Agilent Technologies, Santa Clara, Calif.). After acclimation for one hour at 37° C. in non-buffered assay media, metabolic activity of the EDM samples was quantified using a commercial kit (XF Cell Mito Stress Test Kits; Agilent Technologies) on a Seahorse XFe24 extracellular flux analyzer (Agilent Technologies). Following extracellular flux analysis, tissues were labeled fluorescently using a 1:1000 Sytox Green nucleic acid stain in the microtiter plate (Life Technologies, Grand Island, N.Y.) and imaged on an Olympus IX-81 inverted microscope (Olympus America, Center Valley, Pa.) using a FITC filter. Cell counts were determined using Image J (https://imagej.nih.gov/ij/download.html) and used to compute the oxygen consumption rate per cell (OCR; pmole/min/cell). Raw OCR values were used to calculate several different key parameters of metabolic function per manufacturer's directions (Agilent Technologies), as in Aldrich et al. (2017). The parameters and calculations used in this study were the main outcome measures, including basal respiration, ATP-associated oxygen consumption, proton [H^+] leak, maximal respiration, spare respiratory capacity, non-mitochondrial respiration, and coupling efficiency as described in Schneider et al. and Goldstein et al. (2018).
Mitochondrial Respiration Assay: 3 mm punches of central and peripheral endothelium-Descemet membrane complex (EDM) were secured to the bottom of cell culture microplate wells or CECs were grown directly onto microplate.

Where [4] appears, read: MitoQ 0 to 10 μM (data not shown).
The mark [5] stands for this setting: MitoQ 0 to 10 μM, control vs 10 μM P<0.001, n=3.

“Also recorded” adds a separate entry of the source. Structures can show the parent of a compound that is named as a salt.

Turning to `COC1=C(OC)C(=O)C(CCCCCCCCCC[P+](c2ccccc2)(c2ccccc2)c2ccccc2)=C(C)C1=O` [MitoQ, mitoquinone mesylate], in experiment [1] (setting [4]), the basal respiration entry was “dose dependent reductions”, the maximal respiration entry is listed as “dose dependent reductions”, the non-mitochondrial respiration result was “not influenced” and the proton leak result is “not influenced”. In experiment [1] (setting [5]), the “ATP linked oxygen consumption (ATP linked respiration)” value is “dose dependent decrease; also recorded: significantly different” and the spare respiratory capacity result was “dose dependent decrease; also recorded: significantly different”. Besides, the respiratory function entry in experiment [1] (escalating doses of MitoQ, 0 to 10 μM) is listed as “dose dependent decrease in respiratory function; also recorded: decreased in respiratory function”.
`CC(=O)N[C@@H](CS)C(=O)O` [NAC, N-Acetyl-L-cysteine]: the “maximal respiration and spare respiratory capacity lowered by hyperglycemic growing conditions” value in experiment [2] (1.0 mM NAC) is “mitigates this effect”.
For `O=C(O)c1cc(C(=O)O)c2c(n1)C(=O)C(=O)c1cc(C(=O)O)[nH]c1-2` [PQQ, pyrroloquinoline quinone], the “maximal respiration and spare respiratory capacity lowered by hyperglycemic growing conditions” value in experiment [2] (8.3 μM PQQ) is “mitigates this effect”.
ascorbate-2-phosphate: in experiment [3], the “corneal endothelial cell mitochondrial respiration” value was “did not affect corneal endothelial cell mitochondrial respiration”. The “non-mitochondrial respiration, higher level than untreated control cells” value in experiment [3] (14 days storage, 5 paired corneas, p-value=0.053) was determined as 21%.
As to cyclodextrin [cyclodextrin alone], in experiment [1] (uncomplexed coenzyme Q10 (100 μM) or cyclodextrin alone vs diluent control), the “mitochondrial spare respiratory capacity” value is “reduces the mitochondrial spare respiratory capacity”.

These data come from patent publication US20220249399A1, “COMPOSITION COMPRISING AN ANTI-OXIDANT TO PRESERVE CORNEAL TISSUE” (University of lowa Research Foundation, priority 2019, published 2022).
